In US9657018B2, “Antagonists acting at multiple prostaglandin receptors for the treatment of inflammation” (Allergan, Inc., priority 2014, dated 2017):
Counter-ions that a name gives are not always drawn.

What was measured:
Type in all cases: cell-based
[1] = molecular target: T1, human prostanoid DP1 receptor (Homo sapiens, UniProt Q13258); assay: FLIPR Ca2+ signaling antagonist assay, DP1 receptor stable cell line; design: key to FLIPR data DP1 (Kb): PAg = partial agonist; Ag = agonist; NA = not active; conditions: human recombinant DP1 + chimeric Gqs in HEK-293 EBNA cells; standard agonist BW 245C; NA = no antagonism or Kb>=10,000 nM
T1 construct: expressed in transfected cells
T1 sequence (Q13258 1-359): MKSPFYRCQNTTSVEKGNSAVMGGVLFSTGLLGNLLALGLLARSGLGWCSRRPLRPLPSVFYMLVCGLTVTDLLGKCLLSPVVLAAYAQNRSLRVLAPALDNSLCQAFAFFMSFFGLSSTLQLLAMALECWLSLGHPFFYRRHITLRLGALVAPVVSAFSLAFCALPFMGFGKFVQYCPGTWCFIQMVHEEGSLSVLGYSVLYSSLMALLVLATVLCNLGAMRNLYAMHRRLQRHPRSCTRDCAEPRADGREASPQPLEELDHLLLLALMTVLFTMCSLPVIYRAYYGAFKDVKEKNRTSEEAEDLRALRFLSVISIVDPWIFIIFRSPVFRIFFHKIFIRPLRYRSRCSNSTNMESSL
Method: (§1) The above compounds were tested for PG antagonist activity as follows using human recombinant prostanoid receptor (DP1, EP1-4, FP, IP and TP) stable cell lines:
(§2) In order to measure the response of Gs and Gi coupled prostanoid receptors as a Ca^2+ signal, chimeric G protein cDNAs were used. Stable cell lines over-expressing human prostanoid DP1, EP1-4, FP, IP, and TP receptors were established as follows:
(§3) Briefly, human prostanoid DP1, EP2, and EP4 receptor cDNAs were co-transfected with chimeric Gqs cDNA containing a haemagglutanin (HA) epitope; human prostanoid EP3 receptors were co-transfected with chimeric Gqi-HA; human EP1, FP, IP, and TP receptor cDNAs were expressed with no exogenous G-proteins. Gqs and Gqi chimeric cDNAs (Molecular Devices, Sunnyvale, Calif., U.S.A.), as well as cDNAs of prostanoid receptors, were cloned into a pCEP4 vector with a hygromycin B selection marker. Transfection into HEK-293 EBNA (Epstein-Barr virus nuclear antigen) cells was achieved by the FuGENE 6 transfection Reagent (Roche Applied Science, Indianapolis, Ind., USA). Stable transfectants were selected according to hygromycin resistance. Because Gqs and Gqi contained an HA epitope, G-protein expression was detected by Western blotting analysis using anti-mouse HA monoclonal antibody and horseradish peroxidase (HRP)-conjugated secondary antibody, while functional expression of prostanoid receptors was detected by FLIPR screening (Matias et al., 2004). These stable cell lines were validated using previously published antagonists at 10 μM against serial dilutions of standard agonists by FLIPR functional assays for Ca^2+ Signaling (as described below).
(§4) Ca^2+ signaling studies were performed using a FLIPR TETRA system (Molecular Devices, Sunnyvale, Calif., USA) in the 384-format. This is a high-throughput instrument for cell-based assays to monitor Ca^2+ signaling associated with GPCRs and ion channels. Cells were seeded at a density of 5×10^4 cells/well in BioCoat poly-D-lysine coated, black wall, clear bottom 384-well plates (BD Biosciences, Franklin lakes, NJ, USA) and allowed to attach overnight in an incubator at 37° C. The cells were then washed twice with HBSS-HEPES buffer (Hanks' balanced salt solution without bicarbonate and phenol red, 20 mM HEPES, pH 7.4) using an ELx405 Select CW Microplate Washer (BioTek, Winooski, Vt., USA). After 60 min of dye-loading in the dark using the Ca^2+-sensitive dye Fluo-4AM (Invitrogen, Carlsbad, Calif., USA), at a final concentration of 2×10^−6M, the plates were washed 4 times with HBSS-HEPES buffer to remove excess dye and leaving 50 μl of buffer in each well. The plates were then placed in the FLIPR TETRA instrument and allowed to equilibrate at 37° C. AGN-211377 was added in a 25 μl volume to each well to give final concentrations of 0.1 μl. M, 0.4M, 1 μM, 3 μl. M, 10 μl. M, and 30 μl. M; or 0.067 μM, 0.4M, 0.67 μM, and 1 μM for cells over-expressing TP receptors. After 4.5 minutes, a 7-point serial dilution of the standard agonist for the corresponding receptor, in a 25 μl volume was injected at the final concentrations from 10^−11M to 10^−5M in 10-fold serial dilution increments for cells expressing human recombinant DP1, EP1, EP2, EP3, EP4, FP, and IP receptors. The dose range for the standard agonist for human recombinant TP receptors was from 10^−12M to 10^−6M. HBSS-HEPES buffer was used as the negative control for the standard agonists. Cells were excited with LED (light emitting diode) excitation at 470-495 nm and emission was measured through an emission filter at 515-575 nm. Assay plates were read for 3.5 minutes using the FLIPR^TETRA. The peak increase in fluorescence intensity was recorded for each well. On each plate, negative controls, dose response of positive controls, and co-treatments of antagonist-agonist for each dose were in triplicates. Standard agonists were as follows: DP=BW 245C, EP1-EP4=PGE2, FP=17-phenyl-PGF2a, IP=Cicaprost, and TP=U-46619. […]

[2] = molecular target: T2, human prostanoid EP3 receptor (Homo sapiens, UniProt P43115); assay: FLIPR Ca2+ signaling antagonist assay, EP3 receptor stable cell line; conditions: human recombinant EP3 + chimeric Gqi in HEK-293 EBNA cells; standard agonist PGE2; NA = no antagonism or Kb>=10,000 nM
T2 construct: expressed in transfected cells
T2 sequence (P43115 1-390): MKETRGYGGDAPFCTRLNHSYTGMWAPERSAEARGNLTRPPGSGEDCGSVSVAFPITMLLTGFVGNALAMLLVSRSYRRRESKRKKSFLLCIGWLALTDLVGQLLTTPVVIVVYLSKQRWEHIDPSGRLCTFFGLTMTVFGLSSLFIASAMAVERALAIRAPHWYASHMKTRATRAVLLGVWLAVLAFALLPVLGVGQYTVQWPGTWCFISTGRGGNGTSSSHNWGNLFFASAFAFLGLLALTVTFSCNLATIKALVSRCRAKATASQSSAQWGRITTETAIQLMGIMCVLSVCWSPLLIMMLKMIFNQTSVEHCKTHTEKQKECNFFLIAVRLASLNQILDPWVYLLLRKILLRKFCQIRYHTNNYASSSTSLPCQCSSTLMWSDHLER
Method: as §1, §2, §3, §4

[3] = molecular target: T3, human prostanoid EP4 receptor (Homo sapiens, UniProt P35408); assay: FLIPR Ca2+ signaling antagonist assay, EP4 receptor stable cell line; conditions: human recombinant EP4 + chimeric Gqs in HEK-293 EBNA cells; standard agonist PGE2; NA = no antagonism or Kb>=10,000 nM
T3 construct: expressed in transfected cells
T3 sequence (P35408 whole entry): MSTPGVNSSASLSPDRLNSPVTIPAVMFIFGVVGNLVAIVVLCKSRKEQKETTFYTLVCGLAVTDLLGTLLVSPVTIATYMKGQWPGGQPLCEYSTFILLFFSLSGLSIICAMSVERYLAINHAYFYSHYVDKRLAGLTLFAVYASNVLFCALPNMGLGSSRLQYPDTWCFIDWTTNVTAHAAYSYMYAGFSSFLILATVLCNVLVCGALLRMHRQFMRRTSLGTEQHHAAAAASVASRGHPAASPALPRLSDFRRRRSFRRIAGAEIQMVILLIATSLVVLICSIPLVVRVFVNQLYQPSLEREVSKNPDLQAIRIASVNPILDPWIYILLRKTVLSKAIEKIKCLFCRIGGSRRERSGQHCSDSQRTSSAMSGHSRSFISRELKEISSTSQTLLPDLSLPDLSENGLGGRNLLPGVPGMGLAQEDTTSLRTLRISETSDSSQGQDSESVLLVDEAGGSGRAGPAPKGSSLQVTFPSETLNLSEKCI
Method: as §1, §2, §3, §4

[4] = molecular target: T4, human prostanoid IP receptor (Homo sapiens, UniProt P43119); assay: FLIPR Ca2+ signaling antagonist assay, IP receptor stable cell line; design: key to FLIPR data IP (Kb): PAg = partial agonist; Ag = agonist; NA = not active; conditions: human recombinant IP in HEK-293 EBNA cells; standard agonist Cicaprost; NA = no antagonism or Kb>=10,000 nM
T4 construct: expressed in transfected cells
T4 sequence (P43119 whole entry): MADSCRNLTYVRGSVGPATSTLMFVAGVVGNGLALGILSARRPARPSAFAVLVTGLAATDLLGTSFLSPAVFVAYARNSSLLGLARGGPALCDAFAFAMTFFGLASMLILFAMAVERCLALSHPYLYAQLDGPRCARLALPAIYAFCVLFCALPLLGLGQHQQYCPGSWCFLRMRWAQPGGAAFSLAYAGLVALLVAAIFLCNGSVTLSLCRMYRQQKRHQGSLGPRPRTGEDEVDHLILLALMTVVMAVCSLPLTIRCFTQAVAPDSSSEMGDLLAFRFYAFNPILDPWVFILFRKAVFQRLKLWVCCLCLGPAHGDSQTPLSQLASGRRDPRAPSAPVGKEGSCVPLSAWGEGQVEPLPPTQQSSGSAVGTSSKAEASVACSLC
Method: as §1, §2, §3, §4

| Kb [1] [nM] | Kb [2] [nM] | Kb [3] [nM] | Kb [4] [nM] | FLIPR data IP (Kb) [4] | FLIPR data DP1 (Kb) [1] | SMILES |
| --- | --- | --- | --- | --- | --- | --- |
| 460 | > 10000 | 24 | > 10000 | – | – | CC(C)Cn1ncc2cc(Cl)cc(Cn3ncc4cc(C(=O)O)ccc43)c21 [Compound 41, 1-(5-Chloro-1-isobutyl-1H-indazol-7-ylmethyl)-1H-indazole-5-carboxylic acid] |
| 590 | > 10000 | 22 | > 10000 | – | – | CC(C)Cn1ncc2cc(Br)cc(Cn3ncc4cc(C(=O)O)ccc43)c21 [Compound 42, 1-(5-Bromo-1-isobutyl-1H-indazol-7-ylmethyl)-1H-indazole-5-carboxylic acid] |
| 1700 | > 10000 | 100 | > 10000 | – | – | CC(C)Cn1ncc2cc(F)cc(Cn3ncc4cc(C(=O)O)ccc43)c21 [Compound 43, 1-(5-Fluoro-1-isobutyl-1H-indazol-7-ylmethyl)-1H-indazole-5-carboxylic acid] |
| 1000 | > 10000 | 28 | – | PAg | – | CC(C)Cn1ncc2cc(C(F)(F)F)cc(Cn3ncc4cc(C(=O)O)ccc43)c21 [Compound 44, 1-(1-Isobutyl-5-trifluoromethyl-1H-indazol-7-ylmethyl)-1H-indazole-5-carboxylic acid] |
| 300 | > 10000 | 5 | – | Ag | – | CC(C)Cn1ncc2cc(OC(F)(F)F)cc(Cn3ncc4cc(C(=O)O)ccc43)c21 [Compound 45, 1-(1-Isobutyl-5-trifluoromethoxy-1H-indazol-7-ylmethyl)-1H-indazole-5-carboxylic acid] |
| > 10000 | > 10000 | 330 | > 10000 | – | – | CC(C)n1ncc2cc(Br)cc(Cn3ncc4cc(C(=O)O)ccc43)c21 [Compound 46, 1-(5-Bromo-1-isopropyl-1H-indazol-7-ylmethyl)-1H-indazole-5-carboxylic acid] |
| 1400 | > 10000 | 1700 | 1000 | – | – | CCC(CC)Cn1ncc2cc(Br)cc(Cn3ncc4cc(C(=O)O)ccc43)c21 [Compound 47, 1-[5-Bromo-1-(2-ethyl-butyl)-1H-indazol-7-ylmethyl]-1H-indazole-5-carboxylic acid] |
| 5500 | > 10000 | 130 | > 10000 | – | – | CCCn1ncc2cc(Cl)cc(Cn3ncc4cc(C(=O)O)ccc43)c21 [Compound 48] |
| 3500 | > 10000 | 90 | 8900 | – | – | CC(C)Cn1ncc2cc(Cl)cc(Cn3ncc4cc(C(=O)O)cnc43)c21 [Compound 49, 1-(5-Chloro-1-isobutyl-1H-indazol-7-ylmethyl)-1H-pyrazolo[3,4-b]pyridine-5-carboxylic acid] |
| > 10000 | > 10000 | 80 | > 10000 | – | – | CC(C)Cn1ncc2cc(Cl)cc(Cn3cnc4cc(C(=O)O)ccc43)c21 [Compound 50, 1-(5-Chloro-1-isobutyl-1H-indazol-7-ylmethyl)-1H-benzoimidazole-5-carboxylic acid] |
| > 10000 | > 10000 | 280 | 8000 | – | – | CC(C)Cn1ncc2cc(Cl)cc(Cn3cnc4cc(C(=O)O)cnc43)c21 [Compound 51, 3-(5-Chloro-1-isobutyl-1H-indazol-7-ylmethyl)-3H-imidazo[4,5-b]pyridine-6-carboxylic acid] |
| – | 3400 | 90 | 5500 | – | Ag | CC(C)Cn1ncc2cc(Cl)cc(Cn3ccc4cc(C(=O)O)cnc43)c21 [Compound 52, 1-(5-Chloro-1-isobutyl-1H-indazol-7-ylmethyl)-1H-pyrrolo[2,3-b]pyridine-5-carboxylic acid] |
| 640 | > 10000 | 90 | > 10000 | – | – | Cc1nn(Cc2cc(Br)cc3cnn(CC(C)C)c23)c2ccc(C(=O)O)cc12 [Compound 53, 1-(5-Bromo-1-isobutyl-1H-indazol-7-ylmethyl)-3-methyl-1H-indazole-5-carboxylic acid] |
| 200 | > 10000 | 380 | 9500 | – | – | Cc1nn(Cc2cc(Br)cc3cnn(CC(C)C)c23)c2ncc(C(=O)O)cc12 [Compound 54, 1-(5-Bromo-1-isobutyl-1H-indazol-7-ylmethyl)-3-methyl-1H-pyrazolo[3,4-b]pyridine-5-carboxylic HCl salt] |
| > 10000 | > 10000 | 80 | 8900 | – | – | CC(C)Cn1ncc2cc(C(F)(F)F)cc(Cn3cnc4cc(C(=O)O)ccc43)c21 [Compound 55, 1-(1-Isobutyl-5-trifluoromethyl-1H-indazol-7-ylmethyl)-1H-benzoimidazole-5-carboxylic acid] |
| 5200 | > 10000 | 6 | 9000 | – | – | CC(C)Cn1ncc2cc(OC(F)(F)F)cc(Cn3cnc4cc(C(=O)O)ccc43)c21 [Compound 56, 1-(1-Isobutyl-5-trifluoromethoxy-1H-indazol-7-ylmethyl)-1H-benzoimidazole-5-carboxylic acid] |
| 4700 | > 10000 | 200 | > 10000 | – | – | CC(C)Cn1ncc2cc(Cl)cc(Cc3ncc4cc(C(=O)O)ccn34)c21 [Compound 61, 3-[(5-Chloro-1-isobutyl-indazol-7-yl)methyl]imidazo[1,5-a]pyridine-7-carboxylic acid] |
